# Columns and labels:
# [1] = test system: cyclin D1 and cyclin A; assay: Western blot of cyclin D1 and cyclin A in CT26 cells; assay type: cell-based, mouse
# Experimental: Total cell proteins were collected after treatment in cell lysis buffer containing 0.1 mol/L NaCl, 5 mmol/L EDTA, 50 mmol/L sodium orthovanadate, 1% Triton X-100, and protease inhibitor tablet in 50 mmol/L Tris buffer (pH 7.5). Twenty micrograms of total proteins were separated by SDS-PAGE and transferred onto nitrocellulose membrane and followed by incubation with primary antibody at 4° C. in 5% skim milk and 0.1% Tween-20. Anti-cyclin D1 and anti-cyclin A rabbit polyclonal antibodies were used at 1:1,000 dilution, and anti-b-actin polyclonal antibody was used at 1:2,000 dilution.
# [2] = test system: CT26 cells; assay: Pulmonary metastasis in vivo: CT26 lung tumors in BALB/c mice; parameters: species or system mouse; details: CT26 via tail vein, 100 mg/kg/d in chow diet for 3 weeks
# Experimental: BALB/c mice were intravenously injected with 2×10^4 CT26 cells in 100 μL of PBS via tail vein injection and the mice were treated with bHDL at 10 mg/kg/day administered SQ for 3 weeks; or treated with bHDL at 100 mg/kg/day administered in a chow diet for 3 weeks. After 3 weeks treatment, the mice were sacrificed; lungs were harvested, weighed and fixed with Bouin's solution (Sigma). Tumor nodules on the lung surface were counted.
# BALB/c mice were intravenously injected with 2×10^4 CT26 cells in […] of PBS via tail vein injection and the mice were treated with L-4F or sc-4F at 10 mg/kg/d administered subcutaneously for 3 weeks, or treated with sc-4F or L-4F or G* peptide at 100 mg/kg/d administered in a chow diet for 3 weeks. After 3 weeks treatment, the mice were sacrificed; lungs were harvested, weighed, and fixed with Bouin solution (Sigma). Tumor nodules on the lung surface were counted.
# [3] = test system: CT26 cells; assay: CT26 cell viability, MTS assay; details: Example 5; CT26 cells, 10 mg/mL, 48 hours
# [4] = test system: lysophosphatidic acid (LPA); assay: Plasma LPA levels in treated mice; assay type: in vivo, mouse; details: BALB/c lung tumor mice; 100 mg/kg/d in chow for 3 weeks; vs control mice
# Experimental: LPA (20:4) was purchased from Avanti Polar Lipids. LPA levels were determined as described previously (Murph et al., 2007, Methods Enymol 433:1-25).
# LPA (20:4) was purchased from Avanti Polar Lipids. LPA levels were determined as described previously (19).
substance,measurement,setting,value
"Ac-LVGRQLEEFL-NH2 [G* peptide, Ac-L-V-G-R-Q-L-E-E-F-LNH2]",expression of cyclin D1 and cyclin A,[1],lower
same,lung weights,[2],250 mg
same,tumor numbers on the lung surface,[2],10
same,"Cell viability reduced, compared with control",[3],approximately 40%
same,plasma LPA levels,[4],significantly reduced
